A short description of this series: Solubility of lysine HCl in water with temperature. The class given is physicochemical. The settings on record: room temperature (20-25° C.), monohydrochloride. The procedure: The solubilities of lysine were essentially the same with and without the maleic acid added to the water. For example, samples of lysine HCl were added to water in sealed, glass bottles, shaken, and placed in the forced-air oven at various temperatures. These were manually shaken periodically over the next few hours, then left to dissolve overnight. […] At 70° C., the lysine completely dissolved to 60%; at 80° C. to 62%; at 90° C. to 64%; at 100° C. to 66% lysine by weight in water. […] Representative samples of these materials were dried and polymerized at 220° C., 5 to 7 hours, under nitrogen.

For the molecule `Cl.NCCCC[C@H](N)C(=O)O` [lysine HCl, L-lysine monohydrochloride], the solubility in water result was “about 50 % by weight”. The molecule further gave a solubility in water (listed as lysine) of 50 % by weight.

These data come from patent US9758395B2, “Lysine-based polymer coagulants for use in clarification of process waters” (priority 2011, dated 2017).
